These results are taken from publication PMC2180961 (The Journal of Experimental Medicine, 1977).

One may read the IC50 as the concentration that gives 50% inhibition. A word on the inhibition: it is how much of the control response was suppressed. One may read the Km as the concentration of substrate that gives half-maximal velocity.

Data set [1] addresses T1, rat mast cell chymase (Rattus norvegicus, UniProt P09650).
T1 sequence (P09650 21-260): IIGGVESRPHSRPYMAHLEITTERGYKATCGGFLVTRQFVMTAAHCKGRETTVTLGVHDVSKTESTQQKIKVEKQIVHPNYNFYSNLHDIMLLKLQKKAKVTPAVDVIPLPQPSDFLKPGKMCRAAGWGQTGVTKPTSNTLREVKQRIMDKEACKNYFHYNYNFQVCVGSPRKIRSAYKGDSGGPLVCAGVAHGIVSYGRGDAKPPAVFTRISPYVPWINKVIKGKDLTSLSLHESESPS
Briefly: […]-casein proteolysis assay. In kind it is biochemical.

The target of data set [2] is T1, rat mast cell chymase. Briefly: […]-casein proteolysis assay. Type of data set: biochemical. The settings on record: read-out: % inhibition at 300 mM.
Data set [3] relates to CCOC(=O)[C@H](Cc1ccc(O)cc1)NC(=O)c1ccccc1. Briefly: purified protein. To be noted: 25 C, same experiment as chymase, unit M not printed beside this value.
Substrate in the data set “purified protein”: CCOC(=O)[C@H](Cc1ccc(O)cc1)NC(=O)c1ccccc1
Briefly: purified protein. Type of data set: biochemical, Rattus norvegicus. The settings on record: 25 C, abstract and summary print 1.5 x 10^-3 M (apparent Km).

On rat mast cell chymase [1], `NCCc1c[nH]c2ccc(O)cc12` [5-HT] returned an IC50 of 3 mM.
`NCCc1c[nH]cn1` [histamine]: on rat mast cell chymase [2], the inhibition at 300000 µM came to 20%.
On to alpha-chymotrypsin (Bos taurus), for which the Km in data set [3] is 1170 µM.

B1: rat mast cell chymase (Rattus norvegicus) (protein)
chain: IIGGVESRPHSRPYMAHLEITTERGYKATCGGFLVTRQFVMTAAHCKGRETTVTLGVHDVSKTESTQQKIKVEKQIVHPNYNFYSNLHDIMLLKLQKKAKVTPAVDVIPLPQPSDFLKPGKMCRAAGWGQTGVTKPTSNTLREVKQRIMDKEACKNYFHYNYNFQVCVGSPRKIRSAYKGDSGGPLVCAGVAHGIVSYGRGDAKPPAVFTRISPYVPWINKVIKGKDLTSLSLHESESPS
In the case of B1, in “purified protein”, the Km came to 1560 µM.
